For data set [1], the system named is platelets of rabbit blood. The experiment in a line: In vitro platelet antiaggregant activity, ADP-induced aggregation. It is filed as cell-based. How it is done: (§1) The platelet antiaggregant activity of IPA 955 has been determined in comparison with a known antiaggregant activity, Ticlopidine, on the platelets of rabbit blood added with 3.6% sodium citrate in an amount of 10%. The blood was centrifuged for 15' at 1200 rpm and the surnatant was recovered for its platelet content. The residue has been further centrifuged with the aim of obtaining a "poor" plasma (3000 - 3500 rpm). The plasma platelets obtained after the first centrifugation were suitably diluted with the poor plasma, counted and the rich plasma (first centrifugation) was diluted according to the platelet count so as to obtain a final concentration of platelets of 25.10⁴ ÷ 30.10⁴/mm³.
(§2) The aggregation was induced by the addition of ADP and collagene at the specified concentrations.

In data set [2] the test system is platelets of rabbit blood. The data set can be described thus: In vitro platelet antiaggregant activity, collagen-induced aggregation. It is filed as cell-based. The note with it: for inhibition at 625 µM / inhibition at 1250 µM: Oryctolagus cuniculus, Platelet, read-out: Percent inhibition; for inhibition at 625 µM: compound 0.625 mM; for inhibition at 1250 µM: compound 1.25 mM. How it is done: as §1, §2

Data set [3] in a line: Acute toxicity in the mouse (LD50 by Litchfield and Wilcoxon method). It is filed as in vivo. The note with it: oral and intravenous administration, at the tested doses. On the procedure:
The acute toxicity of IPA 955 has been studied in the mouse after oral and intravenous administration. The LD₅₀ values were calculated according to the Litchfield and Wilcoxon method (J. Pharm. Exp. Therap. 1949, 96, 99).

For the next data set, the target named is T1, aldose-reductase (Rattus norvegicus, UniProt P07943).
T1 construct: The surnatant, after centrifugation at 3000 x g for 15 minutes, has been used; from tissue; host or cells: crystalline lenses of adult male rats (homogenate supernatant)
The data set can be described thus: Aldose-reductase inhibitory activity (rat lens homogenate supernatant, method of Varma and Kinoshita). Format: biochemical, rats. On the procedure:
Crystallin lenses of adult male rats have been homogenized in 0.1 M phosphate buffer pH 6.2. The surnatant, after centrifugation at 3000 x g for 15 minutes, has been used. The surnatant contained 13 mg/ml of proteins. Quercitrin (Fluka, Buchs) 1 mM dissolved in DMSO: H2O (1:10) has been used. The aldose-reductase activity has been tested by the method described by […] J.H. Kinoshita (Biochem. Pharmacol. 25, 2505, 1976) using 1 ml of final volume containing NAPDH (20 μl of a 10 mM solution), DL glyceraldheide 1.5 x 10^-3 M final, […] (25 μl of a 1 M solution) and 150 μl of a surnatant. The blank contained the same substances, except the surnatant.

Where [4] appears, read: ADP conc. 5.0 μM, compound 1.25 mM.
[5] abbreviates: ADP conc. 6.25 μM, compound 0.625 mM.
[6] abbreviates: ADP conc. 6.25 μM, compound 1.25 mM.
[7] abbreviates: ADP conc. 8.3 μM, compound 1.25 mM.
[8] abbreviates: ADP conc. 12.5 μM, compound 0.625 mM.
The mark [9] stands for this setting: ADP conc. 12.5 μM, compound 1.25 mM.

Where two headings read alike, the source gives them in different places.

Here are results for three compounds from patent EP0206322B1, “N-(2-carboxy)-ethyl-1,8-naphthalene imide and its salts for the treatment of diabetic retinopathies and neuropathies” (I.P.A. INTERNATIONAL PHARMACEUTICAL ASSOCIATED S.r.l., priority 1985, dated 1986).

Usually inhibition stands for the change of the read-out against control, counted positive when it falls. By Ki is commonly meant the equilibrium dissociation constant of an inhibitor or competing ligand from its target.

With `Clc1ccccc1CN1CCc2sccc2C1` [TICLOPIDINE, Ticlopidine, reference compound], the Percent inhibition in data set [1] (setting [4]) worked out at 24.4%; in data set [1] (setting [5]), 9.7%; in data set [1] (setting [6]) it was 20.5%; in data set [1] (setting [7]) it was 19.75%; in data set [1] (setting [8]), 15.66%; in data set [1] (setting [9]), 20.02%. Also, in data set [2] (collagene 25 μg/ml), the inhibition at 625 µM was 45.3%. Also, the inhibition at 1250 µM in data set [2] (collagene 25 μg/ml) came out at 66.5%; in data set [2] (collagene 50 μg/ml), 59.6%.
Consider `O=C(O)CCN1C(=O)c2cccc3cccc(c23)C1=O` [IPA 955, N-(2-carboxy)-ethyl-1,8-naphthaleneimide], for which, in data set [3], the acute toxicity entry is given as “practically devoid of toxicity”. Also, the “activity relative to quercitrin (times higher)” value on aldose-reductase (ratio of Ki values against quercitrin) is recorded as “about 6 times”. For the same compound, the Ki at aldose-reductase (supernatant of rat lens homogenate, DL glyceraldheide 1.5 x 10⁻³ M, NADPH, read-out: Ki) is 1.04 µM. Also, the Percent inhibition came out at 14.6% in data set [1] (setting [4]); 8.4% in data set [1] (setting [5]); 25.66% in data set [1] (setting [6]); 16.3% in data set [1] (setting [7]); 23.17% in data set [1] (setting [8]); 16.85% in data set [1] (setting [9]). For the same compound, the “Percent inhibition” value in data set [1] (ADP-induced aggregation, summary over the tables) is listed as “about 20%”. In data set [2] (collagene 25 μg/ml), the inhibition at 625 µM was 41%. Moreover, the inhibition at 1250 µM is 48.8% in data set [2] (collagene 25 μg/ml) and 38.7% in data set [2] (collagene 50 μg/ml). Moreover, the “platelet antiaggregation activity (percent inhibition)” value in data set [2] (collagen induced aggregation, summary over the tables) is recorded as 40 to 50%.
Consider `C[C@@H]1O[C@@H](Oc2c(-c3ccc(O)c(O)c3)oc3cc(O)cc(O)c3c2=O)[C@H](O)[C@H](O)[C@H]1O` [quercitrin, reference compound], for which the affinity on aldose-reductase corresponds to a Ki of 6 µM.
